Test results from PubChem BioAssay AID330 (DTP/NCI, 2004).
Values joined by “and” are separate entries in the source; they are usually repeats but may differ in a detail not shown here. Equal entries are not always repeated. Toxic doses and inconclusive results are not listed. Rule for the calls: active = survival T/C of 150% or more; inactive = T/C below 125% in these data.

Test system: P388 leukemia ip, CD2F1 mice, survival T/C
Assay: NCI In Vivo Anticancer Drug Screen. Data for tumor model P388 Leukemia (intraperitoneal) in CD2F1 (CDF1) mice
Details: endpoint: median survival time, higher = longer survival
Method in brief: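 Mice carrying the transplanted tumor received test compound or vehicle. Survival was recorded in each group, and the value is the treated-group measurement divided by that of the vehicle-treated control group.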

[1] = dose: 50.0 mg/kg/injection, schedule: Q01DX005 (ip), vehicle: saline with Tween-80
[2] = dose: 12.5 mg/kg/injection, schedule: Q01DX009 (ip), vehicle: Klucel (hydroxypropylcellulose) (HPC)
[3] = dose: 25.0 mg/kg/injection, schedule: Q01DX009 (ip), vehicle: Klucel (hydroxypropylcellulose) (HPC)
[4] = dose: 60.0 mg/kg/injection, schedule: Q01DX005 (ip), vehicle: saline with Tween-80
[5] = dose: 120.0 mg/kg/injection, schedule: Q01DX005 (ip), vehicle: saline with Tween-80
[6] = dose: 240.0 mg/kg/injection, schedule: Q01DX005 (ip), vehicle: saline with Tween-80
[7] = dose: 50.0 mg/kg/injection, schedule: Q01DX005 (ip), vehicle: Klucel (hydroxypropylcellulose) (HPC)
[8] = dose: 100.0 mg/kg/injection, schedule: Q01DX005 (ip), vehicle: Klucel (hydroxypropylcellulose) (HPC)
[9] = dose: 200.0 mg/kg/injection, schedule: Q01DX005 (ip), vehicle: Klucel (hydroxypropylcellulose) (HPC)
[10] = dose: 50.0 mg/kg/injection, schedule: Q01DX009 (ip), vehicle: Klucel (hydroxypropylcellulose) (HPC)
[11] = dose: 60.0 mg/kg/injection, schedule: Q01DX005 (ip), vehicle: Klucel (hydroxypropylcellulose) (HPC)
[12] = dose: 120.0 mg/kg/injection, schedule: Q01DX005 (ip), vehicle: Klucel (hydroxypropylcellulose) (HPC)
[13] = dose: 100.0 mg/kg/injection, schedule: Q01DX005 (ip), vehicle: saline with Tween-80
[14] = dose: 50.0 mg/kg/injection, schedule: Q01DX009 (ip), vehicle: saline
[15] = dose: 100.0 mg/kg/injection, schedule: Q01DX009 (ip), vehicle: saline
[16] = dose: 200.0 mg/kg/injection, schedule: Q01DX009 (ip), vehicle: saline

Measured: T/C

CC(C)c1cc(C(=O)O)c(O)c(C(C)C)c1.CC(C)c1cc(C(=O)O)c(O)c(C(C)C)c1.[Cu]
inactive: dose: 12.5 mg/kg/injection, schedule: Q01DX005 (ip), vehicle: saline with Tween-80 96 % of control | dose: 25.0 mg/kg/injection, schedule: Q01DX005 (ip), vehicle: saline with Tween-80 90 % of control | [1] 98 % of control

NC(=O)c1ccccc1Sc1ccccc1C(N)=O
inactive: dose: 100.0 mg/kg/injection, schedule: Q01DX001 (ip), vehicle: saline with Tween-80 100 % of control | dose: 200.0 mg/kg/injection, schedule: Q01DX001 (ip), vehicle: saline with Tween-80 100 % of control | dose: 400.0 mg/kg/injection, schedule: Q01DX001 (ip), vehicle: saline with Tween-80 100 % of control

c1ccc2c[n+](CCCCCCCCCC[n+]3ccc4ccccc4c3)ccc2c1
inactive: dose: 1.25 mg/kg/injection, schedule: Q01DX009 (ip), vehicle: saline 94 % of control | dose: 2.5 mg/kg/injection, schedule: Q01DX009 (ip), vehicle: saline 101 % of control | dose: 5.0 mg/kg/injection, schedule: Q01DX009 (ip), vehicle: saline 102 % of control

COC(=O)c1nc(=S)[nH]c(C(=O)OC)c1C(=O)c1ccc(OC)cc1
inactive: dose: 60.0 mg/kg/injection, schedule: Q01DX005 (ip), vehicle: saline 100 % of control | dose: 120.0 mg/kg/injection, schedule: Q01DX005 (ip), vehicle: saline 96 % of control | dose: 240.0 mg/kg/injection, schedule: Q01DX005 (ip), vehicle: saline 103 % of control

Cc1cn(C2CC(O)C(Cn3ccc4ccccc43)O2)c(=O)[nH]c1=O (stereo unspecified)
inactive: dose: 1.56 mg/kg/injection, schedule: Q01DX009 (ip), vehicle: Klucel (hydroxypropylcellulose) (HPC) 103 % of control | dose: 3.13 mg/kg/injection, schedule: Q01DX009 (ip), vehicle: Klucel (hydroxypropylcellulose) (HPC) 99 % of control | dose: 6.25 mg/kg/injection, schedule: Q01DX009 (ip), vehicle: Klucel (hydroxypropylcellulose) (HPC) 99 % of control | [2] 99 % of control | [3] 97 % of control

O=c1[nH]c2ccc(O)cc2o1
inactive: [4] 108 % of control | [5] 95 % of control | [6] 100 % of control

C=C(C)/C=N/O
inactive: [7] 113 % of control | [8] 104 % of control | [9] 106 % of control

CC(Cc1ccccc1)NN1CCOC(c2ccccc2)C1C (stereo unspecified)
inactive: dose: 100.0 mg/kg/injection, schedule: Q04DX002 (ip), vehicle: saline 102 % of control | dose: 200.0 mg/kg/injection, schedule: Q04DX002 (ip), vehicle: saline 107 % of control | dose: 400.0 mg/kg/injection, schedule: Q04DX002 (ip), vehicle: saline 101 % of control

O=C(NCCNc1ccccc1)C12CC3CC(CC(C3)C1)C2
inactive: [7] 100 % of control | [8] 95 % of control | [9] 95 % of control

NC(=O)Nc1ccc(/C=C\c2ccnc3ccccc23)cc1
inactive: dose: 25.0 mg/kg/injection, schedule: Q04DX003 (ip), vehicle: saline with Tween-80 96 % of control | dose: 50.0 mg/kg/injection, schedule: Q04DX003 (ip), vehicle: saline with Tween-80 93 % of control | dose: 100.0 mg/kg/injection, schedule: Q04DX003 (ip), vehicle: saline with Tween-80 89 % of control

COc1cc(C(c2cc3c(cc2O)OCO3)N2CCN(C(c3cc(OC)c(O)c(OC)c3)c3cc4c(cc3O)OCO4)CC2)cc(OC)c1O (stereo unspecified)
inactive: [4] 91 % of control | [5] 89 % of control | [6] 91 % of control

Cc1nc(C(=O)O)cc(Cl)c1C
inactive: dose: 12.5 mg/kg/injection, schedule: Q01DX009 (ip), vehicle: distilled water + Tween-80 100 % of control | dose: 25.0 mg/kg/injection, schedule: Q01DX009 (ip), vehicle: distilled water + Tween-80 100 % of control | dose: 50.0 mg/kg/injection, schedule: Q01DX009 (ip), vehicle: distilled water + Tween-80 96 % of control | dose: 100.0 mg/kg/injection, schedule: Q01DX009 (ip), vehicle: distilled water + Tween-80 100 % of control | dose: 200.0 mg/kg/injection, schedule: Q01DX009 (ip), vehicle: distilled water + Tween-80 96 % of control

O=C1C2C3C=CC(C3)C2C(=O)N1c1ccc2nc(SC3C=CCCC3)sc2c1 (stereo unspecified)
inactive: [2] 100 % of control | [3] 106 % of control | [10] 99 % of control and 97 % of control | dose: 200.0 mg/kg/injection, schedule: Q01DX009 (ip), vehicle: Klucel (hydroxypropylcellulose) (HPC) 88 % of control

CCC(=O)c1cc(-c2cc(C(=O)CC)[nH]n2)n[nH]1
inactive: [11] 98 % of control | [12] 98 % of control

COc1ccc2c(NCCCCCCCCNc3c4ccc(OC)cc4nc4ccc(Cl)cc34)c3cc(Cl)ccc3nc2c1
inactive: dose: 0.63 mg/kg/injection, schedule: Q01DX009 (ip), vehicle: other 91 % of control | dose: 1.25 mg/kg/injection, schedule: Q01DX009 (ip), vehicle: other 105 % of control | dose: 2.5 mg/kg/injection, schedule: Q01DX009 (ip), vehicle: other 106 % of control | dose: 5.0 mg/kg/injection, schedule: Q01DX009 (ip), vehicle: other 118 % of control

O=C1C(Cl)=C(NCC2CCCN3CCCCC23)C(=O)c2ccccc21 (stereo unspecified)
inactive: dose: 50.0 mg/kg/injection, schedule: Q01DX005 (ip), vehicle: saline 113 % of control | dose: 100.0 mg/kg/injection, schedule: Q01DX005 (ip), vehicle: saline 117 % of control

CC1(C)OC(=O)N=C1c1ccc(F)cc1
inactive: [11] 102 % of control | [12] 107 % of control | dose: 240.0 mg/kg/injection, schedule: Q01DX005 (ip), vehicle: Klucel (hydroxypropylcellulose) (HPC) 111 % of control

FC(F)(F)COP(=S)(OCC(F)(F)F)OCC(F)(F)F
inactive: [1] 107 % of control | [13] 108 % of control | dose: 200.0 mg/kg/injection, schedule: Q01DX005 (ip), vehicle: saline with Tween-80 110 % of control

COc1cc(O)ccc1/C=C/C(=O)c1ccc(OC2OC(CO)C(O)C(O)C2O)cc1 (stereo unspecified)
inactive: dose: 100.0 mg/kg/injection, schedule: Q04DX002 (ip), vehicle: saline with Tween-80 98 % of control | dose: 200.0 mg/kg/injection, schedule: Q04DX002 (ip), vehicle: saline with Tween-80 105 % of control | dose: 400.0 mg/kg/injection, schedule: Q04DX002 (ip), vehicle: saline with Tween-80 108 % of control

Cc1cc2cc(O)c3c(=O)c4c(O)cccc4c(=O)c3c2c(=O)c1=O
inactive: dose: 3.12 mg/kg/injection, schedule: Q01DX005 (ip), vehicle: other 101 % of control | dose: 6.25 mg/kg/injection, schedule: Q01DX005 (ip), vehicle: other 107 % of control | dose: 12.5 mg/kg/injection, schedule: Q01DX005 (ip), vehicle: other 100 % of control | dose: 25.0 mg/kg/injection, schedule: Q01DX005 (ip), vehicle: other 104 % of control

C[C@]12CC[C@@H]3c4ccc(O)cc4CC[C@H]3[C@@H]1C[C@@H](O)[C@@H]2O
inactive: [14] 112 % of control | [15] 100 % of control | [16] 100 % of control | dose: 400.0 mg/kg/injection, schedule: Q01DX009 (ip), vehicle: saline 91 % of control

C=CC(=NC(C)C)NC(C)C
inactive: dose: 1.56 mg/kg/injection, schedule: Q01DX009 (ip), vehicle: saline 100 % of control | dose: 3.13 mg/kg/injection, schedule: Q01DX009 (ip), vehicle: saline 101 % of control

CC(C)(C)OC(=O)NC(COCc1ccccc1)C(=O)ON1C(=O)CCC1=O (stereo unspecified)
inactive: [1] 114 % of control | [13] 103 % of control

CCCCCCCCCCCCOC(=O)CN=C=O
inactive: [14] 100 % of control and 101 % of control | [15] 100 % of control | [16] 107 % of control and 89 % of control

COc1ccc(C(=O)CSC(=S)N2CCCCC2)cc1
inactive: [10] 86 % of control | dose: 100.0 mg/kg/injection, schedule: Q01DX009 (ip), vehicle: Klucel (hydroxypropylcellulose) (HPC) 86 % of control

CSC(=S)n1nc(-c2ccccc2)c(N=Nc2ccc(Br)cc2)c1-c1ccccc1
inactive: dose: 100.0 mg/kg/injection, schedule: Q04DX002 (ip), vehicle: Klucel (hydroxypropylcellulose) (HPC) 100 % of control | dose: 200.0 mg/kg/injection, schedule: Q04DX002 (ip), vehicle: Klucel (hydroxypropylcellulose) (HPC) 97 % of control | dose: 400.0 mg/kg/injection, schedule: Q04DX002 (ip), vehicle: Klucel (hydroxypropylcellulose) (HPC) 101 % of control
